The text below walks through data of patent US11370794B2, “Toll-like receptor antagonist compounds and methods of use” (Dynavax Technologies Corporation, priority 2016, dated 2022).

Where two headings read alike, the source gives them in different places.

The target in one experiment is T1, human TLR8 (Homo sapiens, UniProt Q9NR97).
T1 construct: endogenous in cells; host or cells: primary human monocytes (CD14 microbeads) from buffy coats of healthy donors
T1 sequence (Q9NR97 27-1041): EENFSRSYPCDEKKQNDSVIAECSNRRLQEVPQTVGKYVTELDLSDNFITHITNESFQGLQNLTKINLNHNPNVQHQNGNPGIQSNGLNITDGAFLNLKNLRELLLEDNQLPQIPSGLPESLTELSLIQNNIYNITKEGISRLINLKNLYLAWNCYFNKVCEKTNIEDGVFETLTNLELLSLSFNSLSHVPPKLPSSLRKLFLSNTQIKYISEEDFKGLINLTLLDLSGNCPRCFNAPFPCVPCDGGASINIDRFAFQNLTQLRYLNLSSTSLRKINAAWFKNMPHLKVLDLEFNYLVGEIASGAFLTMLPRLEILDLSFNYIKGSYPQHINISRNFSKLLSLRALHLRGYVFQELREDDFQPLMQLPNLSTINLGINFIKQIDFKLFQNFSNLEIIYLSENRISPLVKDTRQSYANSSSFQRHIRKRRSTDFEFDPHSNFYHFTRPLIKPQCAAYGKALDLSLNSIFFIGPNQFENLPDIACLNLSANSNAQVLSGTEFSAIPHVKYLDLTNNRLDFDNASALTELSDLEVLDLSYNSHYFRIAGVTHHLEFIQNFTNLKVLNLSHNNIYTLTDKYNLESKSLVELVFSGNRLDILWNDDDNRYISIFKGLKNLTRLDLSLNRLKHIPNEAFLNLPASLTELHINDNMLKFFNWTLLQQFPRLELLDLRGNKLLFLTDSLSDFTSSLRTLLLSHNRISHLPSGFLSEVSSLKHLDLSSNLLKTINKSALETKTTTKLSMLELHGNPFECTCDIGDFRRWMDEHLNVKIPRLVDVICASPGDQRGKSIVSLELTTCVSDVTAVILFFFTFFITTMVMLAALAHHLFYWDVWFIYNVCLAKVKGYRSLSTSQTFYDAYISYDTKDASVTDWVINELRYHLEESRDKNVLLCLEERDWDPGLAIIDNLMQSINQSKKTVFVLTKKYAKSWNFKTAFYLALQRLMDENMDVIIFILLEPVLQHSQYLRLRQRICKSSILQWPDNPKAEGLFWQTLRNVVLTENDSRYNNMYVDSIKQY
The experiment is described as follows: Inhibition of human TLR8 in human monocytes (TNF-alpha / IL-1 beta ELISA). It is filed as cell-based. To be noted: for IC50: human monocytes, agonist ORN8L 100 μg/mL, 24 hours. In outline:
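Primary human monocytes from donor buffy coats (~200,000 cells/well) given serially diluted compound, then ORN8L RNA oligonucleotide agonist at 100 μg/mL final. After 24 h at 37 °C, supernatant TNF-alpha and/or IL-1 beta measured by ELISA; IC50 from the concentration-response of cytokine release.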

In another experiment the target is T2, human TLR9 (Homo sapiens, UniProt Q9NR96).
T2 construct: endogenous in cells; host or cells: primary human B cells (CD19 microbeads) from buffy coats of healthy donors
T2 sequence (Q9NR96 26-1032): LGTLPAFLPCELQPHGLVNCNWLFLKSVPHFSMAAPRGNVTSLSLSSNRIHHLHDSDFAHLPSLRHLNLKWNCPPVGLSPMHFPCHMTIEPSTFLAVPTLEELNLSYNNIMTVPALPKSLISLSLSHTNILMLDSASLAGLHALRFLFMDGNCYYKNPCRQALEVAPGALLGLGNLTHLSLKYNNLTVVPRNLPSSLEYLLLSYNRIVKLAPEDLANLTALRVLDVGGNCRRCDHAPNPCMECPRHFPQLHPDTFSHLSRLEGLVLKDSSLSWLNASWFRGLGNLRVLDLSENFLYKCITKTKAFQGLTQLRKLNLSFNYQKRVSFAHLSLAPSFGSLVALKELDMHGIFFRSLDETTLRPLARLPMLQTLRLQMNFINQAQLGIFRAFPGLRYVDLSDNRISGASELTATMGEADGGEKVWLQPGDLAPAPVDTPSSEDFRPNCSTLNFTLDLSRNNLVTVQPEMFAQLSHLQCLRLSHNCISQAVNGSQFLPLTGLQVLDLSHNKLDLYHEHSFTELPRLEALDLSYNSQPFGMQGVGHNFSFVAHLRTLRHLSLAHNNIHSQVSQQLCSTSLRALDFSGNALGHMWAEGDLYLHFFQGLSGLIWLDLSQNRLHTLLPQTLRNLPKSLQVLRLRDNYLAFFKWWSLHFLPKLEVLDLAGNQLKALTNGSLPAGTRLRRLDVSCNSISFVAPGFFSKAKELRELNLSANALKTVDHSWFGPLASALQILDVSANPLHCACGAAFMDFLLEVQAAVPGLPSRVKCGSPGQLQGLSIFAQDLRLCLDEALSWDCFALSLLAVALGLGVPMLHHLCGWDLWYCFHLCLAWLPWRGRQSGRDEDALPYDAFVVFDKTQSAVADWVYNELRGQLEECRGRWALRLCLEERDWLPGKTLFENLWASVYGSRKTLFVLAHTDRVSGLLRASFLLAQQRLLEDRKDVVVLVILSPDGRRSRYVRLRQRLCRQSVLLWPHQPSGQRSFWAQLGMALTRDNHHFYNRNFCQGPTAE
The experiment is described as follows: Inhibition of human TLR9 in human B cells (IL-6 ELISA). Format: cell-based. To be noted: for IC50: human B cells, agonist 1018 ISS 1 μM, IL-6 readout, 48 hours, range about 0.01 to 10 μM, read-out: Human TLR9 IC50; for inhibits TLR9-dependent responses (in words): summary statement of the description. The procedure, abridged: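 Primary human B cells (CD19-isolated from donor buffy coats), ~300,000 per well, treated with compound (about 0.01–10 μM, some 0.001–30 μM) then 1 μM CpG oligonucleotide 1018 ISS. After 48 hours at 37° C, supernatant IL-6 measured by ELISA; IC50 from concentration-response of TLR9-dependent activity.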

Setting [1] is: IL-1 beta readout, read-out: Human TLR8 IC50 IL-1b.
Setting [2] is: TNF-alpha readout, read-out: Human TLR8 IC50 TNF-a.

As for `Cc1ccc(-n2nc3c(N4CCC(C(=O)NC5CCN(C)CC5)CC4)nnc(C)c3c2C)cc1` [compound 18, 1-(3,4-dimethyl-2-(p-tolyl)-2H-pyrazolo[3,4-d]pyridazin-7-yl)-N-(1-methylpiperidin-4-yl)piperidine-4-carboxamide], the IC50 at human TLR8 (setting [1]) was above 10 µM; at human TLR8 (setting [2]), above 10 µM; on human TLR9, 137 nM.
As for `Cc1ccc(-n2nc3c(N4CCC(C(=O)N5CCC(N6CCC6)CC5)CC4)nnc(C)c3c2C)cc1` [compound 65, (4-(azetidin-1-yl)piperidin-1-yl)(1-(3,4-dimethyl-2-(p-tolyl)-2H-pyrazolo[3,4-d]pyridazin-7-yl)piperidin-4-yl)methanone], the IC50 was determined as 1.85 µM at human TLR8 (setting [2]) and 10 nM on human TLR9.
The like results for `Cc1ccc(-n2nc3c(N4CCC(CCC(=O)NC5CN(C)C5)CC4)nnc(C)c3c2C)cc1` [compound 66, 3-(1-(3,4-dimethyl-2-(p-tolyl)-2H-pyrazolo[3,4-d]pyridazin-7-yl)piperidin-4-yl)-N-(1-methylazetidin-3-yl)propanamide] were, in that order, at least 20 µM and 182 nM.
Regarding `COc1ccc(-n2nc3c(N4CCCC(C(=O)NCCN(C)C)C4)nnc(C)c3c2C)cc1` (centres unmarked) [54x, N-(2-(dimethylamino)ethyl)-1-(2-(4-methoxyphenyl)-3,4-dimethyl-2H-pyrazolo[3,4-d]pyridazin-7-yl)piperidine-3-carboxamide], the IC50 was found to be 0.74 µM at human TLR8 (setting [1]), 0.29 µM at human TLR8 (setting [2]) and 4 nM on human TLR9. Besides, the “inhibits TLR8-dependent responses (in words)” value at human TLR8 (summary statement of the description) is recorded as “inhibit”. The “inhibits TLR9-dependent responses (in words)” value against human TLR9 is “inhibit”.
For `Cc1nnc(N2CCC(C(=O)NCCCN(C)C)CC2)c2nn(C(C)C)c(C)c12` [compound 27, N-(3-(dimethylamino)propyl)-1-(2-isopropyl-3,4-dimethyl-2H-pyrazolo[3,4-d]pyridazin-7-yl)piperidine-4-carboxamide], the IC50 was at least 20 µM at human TLR8 (setting [2]) and above 10000 nM at human TLR9.
Consider `CNC(=O)C1CCN(c2nnc(C)c3c(C)n(-c4ccc(C)cc4)nc23)CC1` [2-2], for which the IC50 on human TLR8 (setting [2]) was at least 20 µM; on human TLR9, 3770 nM.
Regarding `CCN(CC)C1CCN(C(=O)C2CCN(c3nncc4cn(-c5ccc(C)cc5)nc34)CC2)CC1` [compound 59, (4-(diethylamino)piperidin-1-yl)(1-(2-(p-tolyl)-2H-pyrazolo[3,4-d]pyridazin-7-yl)piperidin-4-yl)methanone], the IC50 on human TLR8 (setting [2]) stood at 0.77 µM; at human TLR9 it was 6 nM.
The like results for `Cc1ccc(-n2cc3cnnc(N4CCC(C(=O)NCCN5CCOCC5)CC4)c3n2)cc1` [compound 64, N-(2-morpholinoethyl)-1-(2-(p-tolyl)-2H-pyrazolo[3,4-d]pyridazin-7-yl)piperidine-4-carboxamide] were, in that order, at least 20 µM and 557 nM.
Taken in the same sequence, the figures for `Cc1nnc(N2CCC(C(=O)NCCCN(C)C)CC2)c2nn(-c3cccnc3)c(C)c12` [compound 23, 1-(3,4-dimethyl-2-(pyridin-3-yl)-2H-pyrazolo[3,4-d]pyridazin-7-yl)-N-(3-(dimethylamino)propyl)piperidine-4-carboxamide] were at least 20 µM and above 10000 nM.
The like results for `Cc1ccc(-n2nc3c(N4CCC(C(=O)N5CCC6(CN(C)C6)C5)CC4)nnc(C)c3c2C)cc1` [compound 75, (1-(3,4-dimethyl-2-(p-tolyl)-2H-pyrazolo[3,4-d]pyridazin-7-yl)piperidin-4-yl)(2-methyl-2,6-diazaspiro[3.4]octan-6-yl)methanone] were, in that order, at least 20 µM and 25 nM.
Take `Cc1ccc(-n2nc3c(N4CCC(C(=O)NCCN(C)C)CC4)nnc(C)c3c2C(F)(F)F)cc1` [compound 63, N-(2-(dimethylamino)ethyl)-1-(4-methyl-2-(p-tolyl)-3-(trifluoromethyl)-2H-pyrazolo[3,4-d]pyridazin-7-yl)piperidine-4-carboxamide]: the IC50 was at least 20 µM at human TLR8 (setting [2]) and 5580 nM at human TLR9.
For the molecule `CCCN1CCN(C(=O)C2CCCN(c3nnc(C)c4c(C)n(-c5ccccc5)nc34)C2)CC1` (centres unmarked) [63x, (1-(3,4-dimethyl-2-phenyl-2H-pyrazolo[3,4-d]pyridazin-7-yl)piperidin-3-yl)(4-propylpiperazin-1-yl)methanone], the IC50 on human TLR8 (setting [1]) is 1.01 µM; at human TLR8 (setting [2]), 1.12 µM; on human TLR9, 18 nM.
`Cc1ccc(-n2nc3c(N4CCC(C(=O)NCCCN5CCC5)CC4)nnc(C)c3c2C)cc1` [Compound No. 11, N-(3-(azetidin-1-yl)propyl)-1-(3,4-dimethyl-2-(p-tolyl)-2H-pyrazolo[3,4-d]pyridazin-7-yl)piperidine-4-carboxamide]: the values for the IC50 on human TLR8 (setting [1]), at human TLR8 (setting [2]) and at human TLR9 were above 10 µM, above 10 µM and 379 nM, respectively.
Consider `Cc1ccc(-n2nc3c(N4CCC(C(=O)N5CCOCC5)CC4)nnc(C)c3c2C)cc1` [2-3], for which the IC50 was above 10 µM on human TLR8 (setting [1]), above 10 µM on human TLR8 (setting [2]) and above 10000 nM at human TLR9.
`Cc1ccc(-n2nc3c(N4CCC(CC(=O)NCCCN(C)C)CC4)nnc(C)c3c2C)cc1` [Compound No. 22, 2-(1-(3,4-dimethyl-2-(p-tolyl)-2H-pyrazolo[3,4-d]pyridazin-7-yl)piperidin-4-yl)-N-(3-(dimethylamino)propyl)acetamide]: the values for the IC50 at human TLR8 (setting [1]), at human TLR8 (setting [2]) and at human TLR9 were above 10 µM, above 10 µM and 31 nM, respectively. The “inhibits TLR9-dependent responses (in words)” value against human TLR9 is on record as “inhibit”.
`CCN1CCN(C(=O)C2CCN(c3nncc4cn(-c5ccc(C)cc5)nc34)CC2)CC1` [compound 40, (4-ethylpiperazin-1-yl)(1-(2-(p-tolyl)-2H-pyrazolo[3,4-d]pyridazin-7-yl)piperidin-4-yl)methanone]: the values for the IC50 at human TLR8 (setting [2]) and on human TLR9 were 0.226 µM and 26 nM, respectively.
